We go through 14 molecules from ChEMBL document CHEMBL4823285, “Synthesis and evaluation of antimycobacterial activity of riboflavin derivatives” (Bioorg Med Chem Lett, 2021).

The structures appear in SMILES notation. Converted amounts (≈) assume the structure as drawn. The source made the active and inactive calls.

For test [1], the system named is Bacillus subtilis. In words: Antibacterial activity against Bacillus subtilis assessed as inhibition of bacterial growth at 100 to 200 uM. The class given is functional. The settings on record: dose 100-200 µM.
For test [2], the system named is Mycobacterium tuberculosis. Description: Antimycobacterial activity against Mycobacterium tuberculosis H37Rv assessed as inhibition of visible growth […]. The class given is functional.
The subject of the next test is THP-1. Description: Cytotoxicity against human THP-1 cells assessed as cell viability measured after 96 hrs by MTT assay. The class given is cell-based. The conditions noted are these: THP-1, 96 h. Background: Formazan colour is commonly taken as a measure of viable cells.
A short description of test [3]: Selectivity index, ratio of MIC99 for Mycobacterium tuberculosis H37Rv to IC50 for human THP-1 cells. The class given is functional.
Test [4] concerns Staphylococcus aureus. In words: Antibacterial activity against Staphylococcus aureus assessed as inhibition of bacterial growth at 100 to 200 uM. The class given is functional. The conditions noted are these: dose 100-200 µM.
A further test relates to FMN riboswitch. Description: Binding affinity to Lactobacillus plantarum NCDO 1752 FMN riboswitch at 150 nM measured by fluorescence assay. The settings on record: Lactiplantibacillus plantarum. The class given is nucleic-acid assay.
Test [5] deals with Staphylococcus aureus. In words: Antibacterial activity against Staphylococcus aureus assessed as inhibition of bacterial growth. The class given is functional.
The subject of test [6] is Bacillus subtilis. Description: Antibacterial activity against Bacillus subtilis assessed as inhibition of bacterial growth. The class given is functional.

What is called MIC99 is the lowest concentration that inhibits either 99% of growth or 99% of the strains tested, depending on the study. As a reminder, the IC50 is the point on the concentration scale where inhibition reaches its midpoint. For `CCCC(=O)OC[C@H](OC(=O)CCC)[C@H](O)[C@H](O)Cn1c2nc(=O)[nH]c(=O)c-2nc2cc(C)c(C)cc21`, the “inhibition (INH)” value in the test with Bacillus subtilis [1] and in the test with Staphylococcus aureus [4] was greater than 90% throughout. Besides, the MIC99 in test [2] worked out at 25 µM (≈ 12.9 µg/mL). The half-maximal inhibitory concentration (IC50) with THP-1 is greater than 100 µM. In addition, the “Selectivity Index” value in test [3] is reported as greater than 4.
As for `NNC(=O)c1ccncc1` [ISONIAZID], in test [2], the MIC99 turned out to be 0.78 µM (≈ 0.107 µg/mL). For the same molecule, the concentration for half-maximal inhibition (IC50) in the test with THP-1 came out at 100 µM.
With `CCCCCCCCCCCC(=O)OC[C@H](OC(=O)CCCCCCCCCCC)[C@H](O)[C@H](O)Cn1c2nc(=O)[nH]c(=O)c-2nc2cc(C)c(C)cc21`, the MIC99 in test [2] was greater than 50 µM. Besides, the concentration for half-maximal inhibition (IC50) in the test on THP-1 amounted to 25 µM. The “Selectivity Index” value in test [3] is listed as less than 0.5.
In the case of `Cc1cc2nc3c(=O)[nH]c(=O)nc-3n(CC(O)O)c2cc1C`, the MIC99 in test [2] worked out at 6.25 µM (≈ 1.89 µg/mL). Besides, the IC50 in the test on THP-1 is greater than 100 µM. In addition, in test [3], the “Selectivity Index” value is given as greater than 10.7. The Kb in the test with FMN riboswitch is 5.42 10^5/M.
For the molecule `CCCCCC(=O)OC[C@H](OC(=O)CCCCC)[C@H](OC(=O)CCCCC)[C@@H](Cn1c2nc(=O)[nH]c(=O)c-2nc2cc(C)c(C)cc21)OC(=O)CCCCC`, the MIC99 in test [2] was found to be 50 µM (≈ 38.4 µg/mL). For the same molecule, in the test with THP-1, the IC50 was greater than 50 µM. The “Selectivity Index” value in test [3] is recorded as greater than 1.
Taken in the same sequence, the figures for `CC(=O)OC[C@H](OC(C)=O)[C@H](OC(C)=O)[C@@H](Cn1c2nc(=O)n(C)c(=O)c-2nc2cc(C)c(C)cc21)OC(C)=O` were 12.5 µM (≈ 6.98 µg/mL), greater than 100 µM and greater than 2.
The like results for `Cc1cc2nc3c(=O)[nH]c(=O)nc-3n(CCO)c2cc1C` were, in that order, greater than 50 µM, greater than 50 µM and 1.
For orientation: MIC means the smallest concentration in the dilution series that meets the test's criterion for growth inhibition. With `CCCCCCCCCCCC(=O)OC[C@H](OC(=O)CCCCCCCCCCC)[C@H](OC(=O)CCCCCCCCCCC)[C@@H](Cn1c2nc(=O)[nH]c(=O)c-2nc2cc(C)c(C)cc21)OC(=O)CCCCCCCCCCC`, the MIC with Staphylococcus aureus [5] and in the test with Bacillus subtilis [6] was 100 µM (≈ 111 µg/mL) in each case. For the same molecule, the MIC99 in test [2] is greater than 50 µM. For the same molecule, in the test on THP-1, the concentration for half-maximal inhibition (IC50) was greater than 50 µM. For the same molecule, the “Selectivity Index” value in test [3] came to 1.
Consider `CCCCCCCCCCCC(=O)OC[C@H](O)[C@H](O)[C@H](O)Cn1c2nc(=O)[nH]c(=O)c-2nc2cc(C)c(C)cc21`, for which the MIC99 in test [2] is greater than 50 µM. Further, the IC50 in the test on THP-1 worked out at 50 µM. Further, the “Selectivity Index” value in test [3] turned out to be 1.
The like results for `CCCCCC(=O)OC[C@H](OC(=O)CCCCC)[C@H](OC(=O)CCCCC)[C@H](O)Cn1c2nc(=O)[nH]c(=O)c-2nc2cc(C)c(C)cc21` were, in that order, 25 µM (≈ 16.8 µg/mL), greater than 100 µM and greater than 4.
For the molecule `CCCC(=O)OC[C@H](OC(=O)CCC)[C@H](OC(=O)CCC)[C@@H](Cn1c2nc(=O)[nH]c(=O)c-2nc2cc(C)c(C)cc21)OC(=O)CCC`, the “inhibition (INH)” value in the test with Bacillus subtilis [1] and in the test on Staphylococcus aureus [4] was greater than 90% throughout. Moreover, the MIC99 in test [2] was determined as 50 µM (≈ 32.8 µg/mL). Further, the IC50 with THP-1 is 100 µM. Also, the “Selectivity Index” value in test [3] came to 2.
In the case of `CC(=O)OC[C@H](OC(C)=O)[C@H](OC(C)=O)[C@@H](Cn1c2nc(=O)[nH]c(=O)c-2nc2cc(C)c(C)cc21)OC(C)=O`, in test [2], the MIC99 turned out to be 25 µM (≈ 13.6 µg/mL). Besides, the IC50 with THP-1 was determined as 25 µM. Moreover, in test [3], the “Selectivity Index” value came out at 1.
As to `CCCCCCCCCCCC(=O)OC[C@H](OC(=O)CCCCCCCCCCC)[C@H](OC(=O)CCCCCCCCCCC)[C@H](O)Cn1c2nc(=O)[nH]c(=O)c-2nc2cc(C)c(C)cc21`, the inhibition result in the test on Staphylococcus aureus [5] and in the test with Bacillus subtilis [6] was “Active” each time. Also, the MIC99 in test [2] was greater than 50 µM. Besides, the half-maximal inhibitory concentration (IC50) in the test with THP-1 stood at 50 µM. Also, in test [3], the “Selectivity Index” value came out at 1.
As for `CCCC(=O)OC[C@H](OC(=O)CCC)[C@H](OC(=O)CCC)[C@H](O)Cn1c2nc(=O)[nH]c(=O)c-2nc2cc(C)c(C)cc21`, the “inhibition (INH)” value in the test with Bacillus subtilis [1] and with Staphylococcus aureus [4] was greater than 90% each time. The MIC99 in test [2] is 50 µM (≈ 29.3 µg/mL). The IC50 in the test with THP-1 was greater than 100 µM. Further, the “Selectivity Index” value in test [3] was greater than 2.
